Experimental data taken from US8937091B2 (Japan Science and Technology Agency, priority 2009, dated 2015).
Read-outs that look alike come from different tables or passages of the source.

Tests used:
[1] = molecular target: TGase (Cavia porcellus, UniProt P08587); assay type: biochemical; settings: level with DMSO control designated as 100
Experimental: An enzyme reaction solution (0.1 ml) (100 mM HEPES-NaOH, pH 7.5, 1 mM CaCl2, 20 μM monodansyl cadaverine, 0.05 mg/ml N,N-dimethylcasein, 5 μg/ml TGase) was introduced into wells of a 96-well plate (Nunc, 96 Well Black Plate with Clear Bottom). A test compound was added in concentrations of 0.3, 1.0, 3.0, 10, and 30 μM. The solution and the compound were sufficiently mixed while preventing foaming. The plate was set in the fluorescence drug screening system FDSS 3000 (Hamamatsu Photonics K.K.). TGase-inhibiting activity of the compound was calculated by assaying changes in fluorescence wavelength (at 340 nm) per unit time. […] The assay level at which TGase activity decreased by half in the presence of the test compound was designated as TG 50.
Hereafter, the numerals in parentheses written after the TG level, the SOCE level, and the IICR level correspond to the test compound concentrations. The number following the name of each title compound used in the Examples below represents a compound ID number designated arbitrarily by the present inventors.

[2] = system: SOCE (store operated calcium entry) in CHO cells; test: Assay of SOCE (store operated calcium entry)-inhibiting action; assay type: cell-based, Chinese hamster; settings: CHO cells, thapsigargin
Procedure, shortened: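 CHO cells in calcium-free BSS received compound, then 1 μM thapsigargin 2 min later to deplete stores; after 9 min, 2 mM calcium chloride (final) added. Percent inhibition of the rise in intracellular calcium determined at various compound concentrations.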

[3] = system: IICR (IP3 induced calcium release) in CHO cells; test: Assay of IICR (IP3 induced calcium release)-inhibiting action; assay type: cell-based, Chinese hamster; settings: CHO cells, 10 μM ATP
Procedure, shortened: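 Inhibition (%) of the intracellular calcium increase triggered by 10 μM ATP, measured in CHO cells in BSS with calcium. Compound given 1 min after the buffer exchange and 2 min before ATP; values reported per compound concentration.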

Molecule: N,N-bis(2-(4-bromobenzoyl)ethyl)cystinemethylester [Example 392]
- TG level ([1]; test compound 3 μmol): 25
- TG level ([1]; test compound 10 μmol): 3.7
- TG level ([1]; test compound 30 μmol): 2.3
- SOCE level (percentage of inhibition) ([2]; test compound 10 μmol): 20%
- SOCE level (percentage of inhibition) ([2]; test compound 30 μmol): 40%
- SOCE level (percentage of inhibition) ([2]; test compound 100 μmol): 50%
- IICR level (percentage of inhibition) ([3]; test compound 10 μmol): 58%
- IICR level (percentage of inhibition) ([3]; test compound 30 μmol): 61%
- IICR level (percentage of inhibition) ([3]; test compound 100 μmol): 76%

Molecule: O=C(CCNCCSSCCNCCC(=O)c1cccs1)c1cccs1 [Example 369]
- TG level ([1]; test compound 3 μmol): 95.1
- TG level ([1]; test compound 30 μmol): −64.9
- SOCE level (percentage of inhibition) ([2]; test compound 10 μmol): 20%
- SOCE level (percentage of inhibition) ([2]; test compound 30 μmol): 40%
- SOCE level (percentage of inhibition) ([2]; test compound 100 μmol): 50%
- IICR level (percentage of inhibition) ([3]; test compound 10 μmol): 0%
- IICR level (percentage of inhibition) ([3]; test compound 30 μmol): 0%
- IICR level (percentage of inhibition) ([3]; test compound 100 μmol): 70%

Molecule: N,N-bis(2-(4-pyridinoyl)ethyl)cystinemethylester [Example 393]
- TG level ([1]; test compound 3 μmol): 54
- TG level ([1]; test compound 10 μmol): 16
- TG level ([1]; test compound 30 μmol): 3.5
- SOCE level (percentage of inhibition) ([2]; test compound 10 μmol): 20%
- SOCE level (percentage of inhibition) ([2]; test compound 30 μmol): 40%
- SOCE level (percentage of inhibition) ([2]; test compound 100 μmol): 50%
- IICR level (percentage of inhibition) ([3]; test compound 10 μmol): 44%
- IICR level (percentage of inhibition) ([3]; test compound 30 μmol): 42%
- IICR level (percentage of inhibition) ([3]; test compound 100 μmol): 21%

Molecule: O=C(CCNCCCCNCCC(=O)c1ccc(Br)s1)c1ccc(Br)s1 [Example 356]
- TG level ([1]; test compound 3 μmol): 93
- TG level ([1]; test compound 10 μmol): 22.6
- TG level ([1]; test compound 30 μmol): 3.6
- SOCE level (percentage of inhibition) ([2]; test compound 10 μmol): 0%
- SOCE level (percentage of inhibition) ([2]; test compound 30 μmol): 3%
- SOCE level (percentage of inhibition) ([2]; test compound 100 μmol): 10%
- IICR level (percentage of inhibition) ([3]; test compound 10 μmol): 0%
- IICR level (percentage of inhibition) ([3]; test compound 30 μmol): 0%
- IICR level (percentage of inhibition) ([3]; test compound 100 μmol): 10%

Molecule: N,N-bis(2-naphthoylethyl)cystinemethylester [Example 391]
- TG level ([1]; test compound 3 μmol): 33
- TG level ([1]; test compound 10 μmol): 6.4
- TG level ([1]; test compound 30 μmol): 29
- SOCE level (percentage of inhibition) ([2]; test compound 10 μmol): 20%
- SOCE level (percentage of inhibition) ([2]; test compound 30 μmol): 40%
- SOCE level (percentage of inhibition) ([2]; test compound 100 μmol): 50%
- IICR level (percentage of inhibition) ([3]; test compound 10 μmol): 6%
- IICR level (percentage of inhibition) ([3]; test compound 30 μmol): 37%
- IICR level (percentage of inhibition) ([3]; test compound 100 μmol): 41%

Molecule: O=C(CCNCCSSCCNCCC(=O)c1ccco1)c1ccco1 [Example 372]
- TG level ([1]; test compound 3 μmol): 13
- TG level ([1]; test compound 30 μmol): −1.5
- SOCE level (percentage of inhibition) ([2]; test compound 10 μmol): 0%
- SOCE level (percentage of inhibition) ([2]; test compound 30 μmol): 0%
- SOCE level (percentage of inhibition) ([2]; test compound 100 μmol): 15%
- IICR level (percentage of inhibition) ([3]; test compound 10 μmol): 0%
- IICR level (percentage of inhibition) ([3]; test compound 30 μmol): 54%
- IICR level (percentage of inhibition) ([3]; test compound 100 μmol): 58%

Molecule: N,N-bis(2-(5-bromo-2-thiophenoyl)ethyl)cystinemethylester [Example 386]
- TG level ([1]; test compound 3 μmol): 4.6
- TG level ([1]; test compound 10 μmol): 2.9
- TG level ([1]; test compound 30 μmol): 14
- SOCE level (percentage of inhibition) ([2]; test compound 10 μmol): 20%
- SOCE level (percentage of inhibition) ([2]; test compound 30 μmol): 40%
- SOCE level (percentage of inhibition) ([2]; test compound 100 μmol): 50%
- IICR level (percentage of inhibition) ([3]; test compound 10 μmol): 44%
- IICR level (percentage of inhibition) ([3]; test compound 30 μmol): 72%
- IICR level (percentage of inhibition) ([3]; test compound 100 μmol): 77%

Molecule: 2-(N-isopropyl-2-hydroxyethyl)aminoethylferrocenylketone [Example 287]
- TG level ([1]; test compound 3 μmol): 100
- TG level ([1]; test compound 30 μmol): 60.8
- SOCE level (percentage of inhibition) ([2]; test compound 30 μmol): 0%
- SOCE level (percentage of inhibition) ([2]; test compound 100 μmol): 10%
- IICR level (percentage of inhibition) ([3]; test compound 10 μmol): 20%
- IICR level (percentage of inhibition) ([3]; test compound 30 μmol): 40%
- IICR level (percentage of inhibition) ([3]; test compound 100 μmol): 40%

Molecule: O=C(CCNCCSSCCNCCC(=O)c1ccc(Br)s1)c1ccc(Br)s1 [Example 340]
- TG level ([1]; test compound 3 μmol): 0.8
- TG level ([1]; test compound 10 μmol): 2.5
- TG level ([1]; test compound 30 μmol): 4.3
- SOCE level (percentage of inhibition) ([2]; test compound 10 μmol): 0%
- SOCE level (percentage of inhibition) ([2]; test compound 30 μmol): 18%
- SOCE level (percentage of inhibition) ([2]; test compound 100 μmol): 65%
- IICR level (percentage of inhibition) ([3]; test compound 10 μmol): 0%
- IICR level (percentage of inhibition) ([3]; test compound 30 μmol): 40%
- IICR level (percentage of inhibition) ([3]; test compound 100 μmol): 60%

Molecule: 2-bis(N-2-hydroxyethyl)aminoethylferrocenylketone [Example 288]
- TG level ([1]; test compound 3 μmol): 94.9
- TG level ([1]; test compound 30 μmol): 44.1
- SOCE level (percentage of inhibition) ([2]; test compound 30 μmol): 10%
- SOCE level (percentage of inhibition) ([2]; test compound 100 μmol): 40%
- IICR level (percentage of inhibition) ([3]; test compound 10 μmol): 40%
- IICR level (percentage of inhibition) ([3]; test compound 30 μmol): 50%
- IICR level (percentage of inhibition) ([3]; test compound 100 μmol): 60%

Molecule: 2-(N-isopropylbenzyl)aminoethyl-1-methyl-2-pyrrylketone [Example 195]
- TG level ([1]; test compound 3 μmol): 73
- TG level ([1]; test compound 10 μmol): 62.6
- TG level ([1]; test compound 30 μmol): 6.4
- SOCE level (percentage of inhibition) ([2]; test compound 10 μmol): 0%
- SOCE level (percentage of inhibition) ([2]; test compound 30 μmol): 0%
- SOCE level (percentage of inhibition) ([2]; test compound 100 μmol): 10%
- IICR level (percentage of inhibition) ([3]; test compound 10 μmol): 0%
- IICR level (percentage of inhibition) ([3]; test compound 30 μmol): 0%
- IICR level (percentage of inhibition) ([3]; test compound 100 μmol): 0%

Molecule: N,N-bis(2-thiophenoylethyl)cystinemethylester [Example 389]
- TG level ([1]; test compound 3 μmol): 9.7
- TG level ([1]; test compound 10 μmol): 2.7
- TG level ([1]; test compound 30 μmol): −3.8
- SOCE level (percentage of inhibition) ([2]; test compound 10 μmol): 20%
- SOCE level (percentage of inhibition) ([2]; test compound 30 μmol): 40%
- SOCE level (percentage of inhibition) ([2]; test compound 100 μmol): 50%
- IICR level (percentage of inhibition) ([3]; test compound 10 μmol): 22%
- IICR level (percentage of inhibition) ([3]; test compound 30 μmol): 45%
- IICR level (percentage of inhibition) ([3]; test compound 100 μmol): 54%

Molecule: 2-(N-isopropylbenzyl)aminoethylferrocenylketone [Example 286]
- TG level ([1]; test compound 3 μmol): 99.2
- TG level ([1]; test compound 30 μmol): 54.2
- SOCE level (percentage of inhibition) ([2]; test compound 30 μmol): 0%
- SOCE level (percentage of inhibition) ([2]; test compound 100 μmol): 0%
- IICR level (percentage of inhibition) ([3]; test compound 10 μmol): 50%
- IICR level (percentage of inhibition) ([3]; test compound 30 μmol): 80%
- IICR level (percentage of inhibition) ([3]; test compound 100 μmol): 50%

Molecule: O=C(CCNCCSSCCNCCC(=O)c1ccc2ccccc2c1)c1ccc2ccccc2c1 [Example 370]
- TG level ([1]; test compound 3 μmol): 36
- TG level ([1]; test compound 30 μmol): 1.6
- SOCE level (percentage of inhibition) ([2]; test compound 10 μmol): 0%
- SOCE level (percentage of inhibition) ([2]; test compound 30 μmol): 0%
- SOCE level (percentage of inhibition) ([2]; test compound 100 μmol): 3%
- IICR level (percentage of inhibition) ([3]; test compound 10 μmol): 0%
- IICR level (percentage of inhibition) ([3]; test compound 30 μmol): 0%
- IICR level (percentage of inhibition) ([3]; test compound 100 μmol): 29%
